Measured values taken from ChEMBL document CHEMBL5316312, “Novel Diarylthioether Compounds as Agents for the Treatment of Chagas Disease” (J Med Chem, 2023).
Converted amounts (≈) assume the structure as drawn. The source made the active and inactive calls. The calls are words filed in the database; no cut-off is given here.

Tests used:
[1] = Microsomal stability in CD-1 mouse liver microsome measured assessed as intrinsic clearance upto 30 mins by HPLC-MS/MS analysis; type: ADME; details: microsomes, 0.5 h
[2] = AUC (0 to t) in BALB/c mouse at 50 mg/kg, po measured at 15 to 1440 mins by LC-MS/MS analysis; type: ADME, organism-based; set-up: dose 50 mg/kg, time upper 1440 min, time lower 15 min, route po; details: in vivo
[3] = Toxicity in BALB/c mouse assessed as reduction in body weight loss at 50 mg/kg, po bid; type: organism-based; set-up: scale not given: the % may be the effect or the level left; details: in vivo
[4] = Microsomal stability in human liver microsome measured assessed as intrinsic clearance upto 30 mins by HPLC-MS/MS analysis; type: ADME; details: microsomes, 0.5 h
[5] = AUC in BALB/c mouse at 50 mg/kg, po measured at 15 to 1440 mins by LC-MS/MS analysis; type: ADME, organism-based; set-up: time upper 1440 min, dose 50 mg/kg, time lower 15 min, route po; details: in vivo
[6] = Cytotoxicity against rat H9c2 cells assessed as reduction in cell viability measured for 72 hrs; type: toxicity, cell-based
Trypanosoma cruzi [7] = experiment: Antitrypanosomal activity against Trypanosoma cruzi Tulahuen trypomastigotes assessed as reduction in parasite growth incubated for 4 hrs by cell counter analysis; type: functional, organism-based
[8] = Microsomal stability in human liver microsome measured assessed as half life upto 30 mins by HPLC-MS/MS analysis; type: ADME; details: liver microsomes
[9] = Cmax in BALB/c mouse at 50 mg/kg, po measured at 15 to 1440 mins by LC-MS/MS analysis; type: ADME, organism-based; set-up: time lower 15 min, dose 50 mg/kg, time upper 1440 min, route po; details: in vivo
[10] = Microsomal stability in CD-1 mouse liver microsome measured assessed as half life upto 30 mins by HPLC-MS/MS analysis; type: ADME; details: liver microsomes
[11] = Tmax in BALB/c mouse at 50 mg/kg, po measured at 15 to 1440 mins by LC-MS/MS analysis; type: ADME, organism-based; details: in vivo, time 15-1440 min
Trypanosoma cruzi [12] = experiment: In vivo antitrypanosomal activity against Trypanosoma cruzi infected in BALB/c mouse model assessed as reduction in parasitemia at 30 mg/kg, po preincubated for 4 days post infection followed by compound treatment and measured after 5 to 10 days; type: functional; set-up: scale not given: the % may be the effect or the level left; details: time 5-10 day
Trypanosoma cruzi [13] = experiment: Antitrypanosomal activity against Trypanosoma cruzi Tulahuen amastigotes infected in monkey LLC-MK2 cells assessed as reduction in amastigotes per 100 cells by cell counting analysis; type: functional, organism-based
[14] = Equilibrium solubility of the compound in FaSSIF at pH 6.5; type: physicochemical
[15] = Cytotoxicity against monkey LLC-MK2 cells assessed as reduction in cell viability; type: toxicity, cell-based; details: rhesus monkey (Macaca mulatta)
Trypanosoma cruzi [16] = experiment: Antitrypanosomal activity against Trypanosoma cruzi Tulahuen strain trypomastigotes infected in rat H9c2 cells; type: functional, organism-based
HepG2 = experiment: Cytotoxicity against human HepG2 cells assessed as reduction in cell viability; type: functional, cell-based
[17] = molecular target: Sterol 14-alpha demethylase (Trypanosoma cruzi (strain CL Brener), UniProt Q7Z1V1); experiment: Inhibition of Trypanosoma cruzi CYP51
[18] = Cytotoxicity against mouse NIH3T3 cells assessed as reduction in cell viability; type: toxicity, cell-based
[19] = molecular target: Voltage-gated inwardly rectifying potassium channel KCNH2 (Homo sapiens, UniProt Q12809); experiment: Inhibition of hERG cardiac ion channel; type: toxicity
Trypanosoma cruzi [20] = experiment: Antitrypanosomal activity against Trypanosoma cruzi Tulahuen amastigotes infected in monkey LLC-MK2 cells assessed reduction in amastigotes per 100 cells by measuring rate of kill time by counting analysis; type: functional

Sterol 14-alpha demethylase, sequence (Q7Z1V1 whole entry): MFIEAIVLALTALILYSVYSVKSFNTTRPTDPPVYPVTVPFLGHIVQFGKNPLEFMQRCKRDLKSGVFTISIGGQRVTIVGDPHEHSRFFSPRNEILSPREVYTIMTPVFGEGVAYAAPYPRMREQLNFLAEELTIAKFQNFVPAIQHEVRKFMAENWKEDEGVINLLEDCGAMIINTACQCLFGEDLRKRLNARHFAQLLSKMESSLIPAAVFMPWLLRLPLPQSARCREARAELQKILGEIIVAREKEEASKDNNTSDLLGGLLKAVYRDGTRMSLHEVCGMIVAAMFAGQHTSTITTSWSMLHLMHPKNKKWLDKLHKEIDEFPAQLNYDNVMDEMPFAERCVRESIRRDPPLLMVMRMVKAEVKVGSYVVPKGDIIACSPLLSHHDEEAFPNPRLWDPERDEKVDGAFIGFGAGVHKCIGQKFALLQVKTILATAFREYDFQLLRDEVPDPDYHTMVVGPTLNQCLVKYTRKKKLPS
Voltage-gated inwardly rectifying potassium channel KCNH2, sequence (Q12809 whole entry): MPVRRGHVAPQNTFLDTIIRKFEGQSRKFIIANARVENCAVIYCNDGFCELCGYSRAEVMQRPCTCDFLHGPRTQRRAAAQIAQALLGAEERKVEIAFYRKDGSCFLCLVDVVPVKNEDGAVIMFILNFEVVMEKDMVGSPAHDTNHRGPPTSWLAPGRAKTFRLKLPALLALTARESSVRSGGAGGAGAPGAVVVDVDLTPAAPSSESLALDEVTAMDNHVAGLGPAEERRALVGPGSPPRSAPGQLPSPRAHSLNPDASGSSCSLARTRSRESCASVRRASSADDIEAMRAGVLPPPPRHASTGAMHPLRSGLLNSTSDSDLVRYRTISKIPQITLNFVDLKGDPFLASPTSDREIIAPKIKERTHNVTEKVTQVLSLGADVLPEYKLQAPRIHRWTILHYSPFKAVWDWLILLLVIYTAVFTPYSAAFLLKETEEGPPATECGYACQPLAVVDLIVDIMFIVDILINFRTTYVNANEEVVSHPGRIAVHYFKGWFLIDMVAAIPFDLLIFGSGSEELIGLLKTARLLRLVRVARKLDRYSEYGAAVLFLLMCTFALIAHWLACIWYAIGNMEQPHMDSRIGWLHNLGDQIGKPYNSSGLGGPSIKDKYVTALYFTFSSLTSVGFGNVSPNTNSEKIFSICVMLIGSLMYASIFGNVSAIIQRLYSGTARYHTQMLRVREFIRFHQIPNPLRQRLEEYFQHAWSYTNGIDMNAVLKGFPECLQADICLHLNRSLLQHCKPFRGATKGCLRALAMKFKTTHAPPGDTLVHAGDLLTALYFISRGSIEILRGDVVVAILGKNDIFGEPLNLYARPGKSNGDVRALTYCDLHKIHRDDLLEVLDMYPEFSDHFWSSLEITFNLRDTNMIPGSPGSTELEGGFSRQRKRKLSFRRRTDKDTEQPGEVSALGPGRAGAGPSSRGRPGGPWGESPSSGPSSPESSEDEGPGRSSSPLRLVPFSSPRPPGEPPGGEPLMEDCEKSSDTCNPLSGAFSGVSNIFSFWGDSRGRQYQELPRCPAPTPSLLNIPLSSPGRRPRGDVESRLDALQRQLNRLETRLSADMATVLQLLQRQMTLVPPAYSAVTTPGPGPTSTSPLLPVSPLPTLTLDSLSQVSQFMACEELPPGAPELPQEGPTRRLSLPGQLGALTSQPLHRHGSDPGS

Row | SMILES | IC50 at 72 h [6] [µM] | IC50 (Trypanosoma cruzi [7]) [µM] | other results
1 | O=C1CCCN1c1ccc(Sc2ccccc2CO)c(C(F)(F)F)c1 | > 50.1 | 0.0316 | CLH [1]: 31.49 mL/min/g; AUC(0-t) [2]: 485 ng·h/mL; Activity [3]: 16%; CLH [4]: 11.51 mL/min/g; AUC [5]: 530 ng·h/mL; half-life [8]: 2.11 min; Cmax [9]: 301 ng/mL; half-life [10]: 4.78 min; Tmax [11]: 30 min; Activity (Trypanosoma cruzi [12]): 70%
2 | O=C1CCCN1c1ccc(Sc2cccc(Cl)c2CO)c(C(F)(F)F)c1 | > 50.1 | 0.316 | –
3 | Cc1cccc(CO)c1Sc1ccc(N2CCCC2=O)cc1C(F)(F)F | > 50.1 | 0.794 | –
4 | O=C(Cn1ccnc1[N+](=O)[O-])NCc1ccccc1 [BENZNIDAZOLE] | 31.6 | 1.26 | –
5 | O=C1CCCN1c1ccc(Sc2ncccc2CO)c(C(F)(F)F)c1 | > 50.1 | 20 | –
6 | O=C1CCCN1c1ccc(Sc2ccccc2CO)c(Cl)c1 | > 50.1 | 0.2 | –
7 | O=C1CCCN1c1ccc(S(=O)(=O)c2ccccc2CO)c(C(F)(F)F)c1 | > 50.1 | 0.251 | CLH [1]: 20 mL/min/g; AUC(0-t) [2]: 208 ng·h/mL; CLH [4]: 12.5 mL/min/g; half-life [8]: 3.32 min; Cmax [9]: 175 ng/mL; half-life [10]: 4.39 min; Tmax [11]: 30 min
8 | O=C1CCCN1c1ccc(Sc2ccc(Cl)cc2CO)c(C(F)(F)F)c1 | 31.6 | 0.158 | –
9 | COc1ccc(CO)c(Sc2ccc(N3CCCC3=O)cc2C(F)(F)F)c1 | > 50.1 | 15.8 | –
10 | O=C1CCCN1c1ccc(Sc2ccccc2CO)c(OC(F)(F)F)c1 | > 50.1 | 2.51 | –
11 | O=C1CCCN1c1ccc(Sc2ccccc2CO)cc1 | > 50.1 | > 50.1 | –
12 | Cc1ccc(CO)c(Sc2ccc(N3CCCC3=O)cc2C(F)(F)F)c1 | > 50.1 | 15.8 | –
13 | O=C1CCCN1c1ccc(Sc2cc(F)ccc2CO)c(C(F)(F)F)c1 | > 50.1 | 0.126 | –
14 | N#Cc1cc(N2CCCC2=O)ccc1Sc1cccc(CO)c1 | > 50.1 | 31.6 | –
15 | COC(=O)c1cc(N2CCCC2=O)ccc1Sc1ccccc1CO | > 50.1 | 31.6 | –
16 | O=C1CCCN1c1ccc(Sc2ccccc2CO)c(F)c1 | > 50.1 | 5.01 | –
17 | COc1cccc(CO)c1Sc1ccc(N2CCCC2=O)cc1C(F)(F)F | > 50.1 | 20 | –
18 | O=C1CCCN1c1ccc(Sc2cc(Cl)ccc2CO)c(C(F)(F)F)c1 | 39.8 | 6.31 | –

Row | SMILES | IC50 at 72 h [6] [µM] | IC50 (Trypanosoma cruzi [7]) [µM] | other results
19 | Cc1cc(N2CCCC2=O)ccc1Sc1ccccc1CO | > 50.1 | 6.31 | –
20 | CN(C)C(=O)c1cc(N2CCCC2=O)ccc1Sc1ccccc1CO | > 50.1 | 50.1 | –
21 | N#Cc1cc(N2CCCC2=O)ccc1Oc1ccccc1CO | > 50.1 | 2.51 | –
22 | O=C1CCCN1c1ccc(Sc2ccccc2O)c(C(F)(F)F)c1 | 15.8 | 2 | –
23 | N#Cc1cc(N2CCCC2=O)ccc1Sc1ccccc1C(=O)O | > 50.1 | 0.794 | –
24 | O=C1CCCN1c1ccc(Sc2cccc(F)c2CO)c(C(F)(F)F)c1 | > 50.1 | 0.02 | –
25 | Cc1cccc(Sc2ccc(N3CCCC3=O)cc2C(F)(F)F)c1CO | > 50.1 | 0.316 | –
26 | CCc1ccccc1Sc1ccc(N2CCCC2=O)cc1C(F)(F)F | 15.8 | 20 | –
27 | COc1ccc(Sc2ccc(N3CCCC3=O)cc2C(F)(F)F)c(CO)c1 | > 50.1 | 1 | –
28 | COc1cccc(Sc2ccc(N3CCCC3=O)cc2C(F)(F)F)c1CO | > 50.1 | 25.1 | –
29 | O=C1CCCN1c1ccc(Sc2c(Cl)cccc2CO)c(C(F)(F)F)c1 | > 50.1 | 1.26 | –
30 | O=C1CCCN1c1ccc(Sc2ccccc2CO)nc1 | > 50.1 | 12.6 | –
31 | O=C(O)c1cc(N2CCCC2=O)ccc1Sc1ccccc1CO | > 50.1 | > 50.1 | –
32 | Cc1ccc(Sc2ccc(N3CCCC3=O)cc2C(F)(F)F)c(CO)c1 | > 50.1 | 6.31 | –
33 | O=C1CCCN1c1ccc(Sc2ccccc2CO)cc1C(F)(F)F | > 50.1 | 7.94 | –
34 | O=C1CCCN1c1ccc(Sc2ccc(F)cc2CO)c(C(F)(F)F)c1 | > 50.1 | – | –
35 | N#Cc1cc(N2CCCC2=O)ccc1Sc1ccccc1CO | 0.447 | – | IC50 (Trypanosoma cruzi [13]): 0.251 µM; CLH [1]: 1.36 mL/min/g; solubility thermodynamic [14]: 56 µg/mL (≈ 173 µM); IC50 [15]: 0.447 µM; IC50 (Trypanosoma cruzi [16]): 0.24 µM; IC50 (HepG2): > 100 µM; CLH [4]: 4.62 mL/min/g; IC50 [17]: > 10 µM; IC50 [18]: > 50.1 µM; IC50 [19]: > 50.1 µM; Activity (Trypanosoma cruzi [7]): inactive; half-life [8]: 15 min; half-life [10]: 54 min; Time (Trypanosoma cruzi [20]): >24 h
36 | COCc1ccccc1Sc1ccc(N2CCCC2=O)cc1C#N | 31.6 | 6.31 | –
